Columns and labels:
[1] = Hydrogen peroxide produced by Aβ1-42 in the presence of CuCl2, ascorbate, air and ligand (Amplex Red H2O2/HRP); assay type: biochemical; settings: CuCl2 0.4 μM, ascorbate 10 μM, air
Procedure: (§1) FIG. 11: Variation in H2O2 production by copper complexes of Aβ1-42 peptide as a function of the Cu(II)/Aβ stoichiometry. Experiments are carried out for 5 minutes in a sodium phosphate buffer (pH=7.4) in the presence 0.4 μM CuCl2, 10 μM ascorbate and air with or without 0.4 μM of 3 or 7. The H2O2 released is quantified by means of an Amplex-Red H2O2/HRP Assay kit.
(§2) The final concentrations are given. The reactions were carried out in the dark in mM sodium phosphate buffer (pH=7.4). Aβ1-42 (0.2 μM) and CuCl2 (0.4 μM) were pre-incubated for 1 hour at 37° C. while stirring at 1,400 rpm in 375 μl of buffer. Then 2 μl of a solution of ligand to be investigated (0.2; 0.4 or 0.8 μM) in DMSO were added. After incubation for a further hour, 2 μl of an aqueous sodium ascorbate solution (10 μM) were added and incubation was continued for 5 min while stirring. The amount of H2O2 produced is then quantified using an Amplex Red H2O2/HRP Assay Kit (Molecular Probes) while adding a volume of assay reagent to the samples, then incubating them for 1 hour at 37° C. while stirring at 500 rpm. […] Quantification is carried out on the basis of standard curves obtained with known amounts of H2O2.
(§3) The figures in the tables correspond to the amount of H2O2 (expressed in nanomoles) added using an Amplex Red H2O2/HRP Assay kit.

[2] = target: T1, copper complexes of Aβ1-42 peptide (Homo sapiens, UniProt P05067); assay: as above; assay type: biochemical; settings: CuCl2 0.4 μM, ascorbate 10 μM, air
T1 construct: The β-amyloid peptide Aβ1-42 (Aβ1-42) was synthesised, purified (to a purity greater than 95%); made in house; host or cells: chemical peptide synthesis (no expression host)
Procedure: as §1, §2, §3

[3] = system: copper complexes of Aβ1-42 peptide; assay: Stability of H2O2 during the H2O2 production inhibition experiments (known amount of H2O2 added); assay type: biochemical; settings: for theoretical value of H2O2 if there is no degradation (in parentheses): ascorbate, ligand; for H2O2 assayed: no Aβ1-42, Cu(II) 0.4 μM, ascorbate 10 μM, ligand 0.4 μM
Procedure: (§4) The final concentrations are given. The reactions were carried out in the dark in mM sodium phosphate buffer (pH=7.4). Aβ1-42 (0.2 μM) and CuCl2 (0.4 μM) were pre-incubated for 1 hour at 37° C. while stirring at 1,400 rpm in 375 μl of buffer. Then 2 μl of a solution of ligand to be investigated (0.2; 0.4 or 0.8 μM) in DMSO were added. After incubation for a further hour, 2 μl of an aqueous sodium ascorbate solution (10 μM) were added and incubation was continued for 5 min while stirring. The amount of H2O2 produced is then quantified using an Amplex Red H2O2/HRP Assay Kit (Molecular Probes) while adding a volume of assay reagent to the samples, then incubating them for 1 hour at 37° C. while stirring at 500 rpm. H2O2 is then detected by spectrophotometry at 563 nm. Quantification is carried out on the basis of standard curves obtained with known amounts of H2O2.
(§5) Experiments were also carried out in the presence of a known amount of H2O2, added just before or just after the addition of sodium ascorbate, in order to investigate the stability of H2O2 under the experimental conditions employed.

[4] = target: T1, copper complexes of Aβ1-42 peptide; assay: as above; assay type: biochemical; settings: Aβ1-42 0.2 μM, Cu(II) 0.4 μM, ascorbate 10 μM, ligand 0.4 μM
Procedure: as §4, §5

[5] = Determination of log D7.4 (1-octanol / Tris-HCl buffer); assay type: physicochemical; settings: 1-octanol / 20 mM Tris-HCl buffer containing 150 mM NaCl (pH = 7.4) (1/1, v/v)
Procedure: The ligand (2.0 mg) is dissolved in 2 ml of 1-octanol then 2 ml of 20 mM Tris-HCl buffer, pH=7.4 containing 150 mM NaCl are added. After mixing in a vortex for 3 min at ambient temperature, followed by centrifugation for 5 min at 9,000 rpm, the concentration of the ligand in each phase is determined by UV-visible spectrophotometry. The 1-octanol fractions are thus redivided until reproducible values of coefficient of division of obtained. This coefficient is expressed as the decimal logarithm of [(the concentration of ligand contained in the 1-octanol phase)/(the concentration of ligand contained in the buffered aqueous phase)]=log D7.4. Measurements were taken three times.

Aβ1-42 = target: T2, Aβ1-42 (Homo sapiens, UniProt P05067); assay: Inhibition of the precipitation of Aβ1-42 by the addition of ligand (Micro BCA assay of soluble/aggregated peptide); assay type: biochemical; settings: Aβ1-42 5 μM, pH 7.4; for CuCl2 % soluble Aβ: 20 μM CuCl2, 1 h 37° C. then 1 h with 200 μM ligand; for FeCl3 % soluble Aβ: 20 μM FeCl3, 1 h 37° C. then 1 h with 200 μM ligand; for ZnCl2 % soluble Aβ: 20 μM ZnCl2, 1 h 37° C. then 1 h with 200 μM ligand; for without metal % soluble Aβ: no metal salt, 1 h 37° C. then 1 h with 200 μM ligand
T2 construct: The β-amyloid peptide Aβ1-42 (Aβ1-42) was synthesised, purified (to a purity greater than 95%); made in house; host or cells: chemical peptide synthesis (no expression host)
Procedure: After a further hour of incubation, the reaction mixture is centrifuged.
Before use, the water [of Milli-Q Millipore quality] and all buffer solutions were treated on Chelex-100 resin (Biorad) (5 mg/ml) and filtered through 0.2 μm filters (Whatman) to remove potential traces of metal ions or particles.
Working solutions of the peptide were prepared by solubilising 1 mg of lyophilised peptide in 500 μl of water and 500 μl of an aqueous NaOH solution pH=12.0, while stirring in a Thermomixer Comfort (Eppendorf). The peptide preparations are subsequently centrifuged for 10 minutes at 9,000 rpm and the supernatant is used as an “Aβ stock” solution. The concentration of peptide in the “Aβ stock” is determined immediately by colorimetric assay using a Micro BCA Protein Assays kit (Pierce) from standard ranges produced using known amounts of bovine serum albumin (BSA) then the Aβ1-42 peptide solution is aliquoted and frozen rapidly in liquid nitrogen prior to being stored at −20° C. until being used.
Salts are generated by adding one hydrochloric acid equivalent per nitrogen group equivalent of the ligand dissolved in DMSO. After evaporation of the solvent, these salts are dissolved at the desired concentration with DMSO and kept at −20° C. until they are used.
The protocol was established from works by: C. S. Atwood et al., J. Neurochem. […] The final concentrations are given. 500 μl of Aβ1-42 (5 μM is set to aggregate in 20 mM Tris-HCl buffer containing 150 mM NaCl (pH=7.4) for 1 hour at 37° C. while stirring at 1,400 rpm in the absence or presence of metal ions: CuCl2, ZnCl2 or FeCl3 (20 μM). Then 50 pi of ligand to be tested (200 μM) dissolved in DMSO are added and the samples are incubated for 1 further hour at 37° C. while stirring at 1,400 rpm. The samples without ligand also receive 50 μl of DMSO. The samples (final volume=550 μ) are subsequently centrifuged for 20 min at 9,000 rpm, and 500 μl of supernatant are removed. The tube containing the precipitation pellet then receives 450 μl of assay buffer/DMSO mixture (91/9, v/v). […] Quantification is carried out on the basis of standard BSA ranges. The amounts of Aβ1-42 actually contained in the pellet and the supernatant are obtained after a correction due to the presence of a residual portion of supernatant in the pellet-containing fraction.
For the control experiments with derivatives comprising a single quinoline residue, […] of ligand were added because complexes of type L2Cu are conventionally used in these cases.

[6] = system: Salmonella tiphimurium TA98; assay: AMES test, TA98; settings: value per plate
Excerpt: (§6) AMES test: The method is adapted from D. M. Maron and B. N. Ames, Mutat.
(§7) The test involves evaluating the potential of the tested molecules to induce mutation which is reverse to the histidine locus of these lines. These two lines were provided by Dr. Bruce N. Ames (University of California, Berkeley, USA). They are resistant to Ampicillin and sensitive to Tetracycline. They are not mutant toward rfa, UvγV and UvγA. The line TA98 (his D3052) contains a mutation of reading phase (GC) whereas the line TA100 (his G46) contains a substitution of base pair (GC).
(§8) The compounds to be tested were dissolved in 100% of DMSO (the solvent) and diluted logarithmically (by a factor of 10) so as to obtain 4 test concentrations of 30,000; 3,000; 300 and 30 μg/ml. Each series of 0.1 ml of stock solution to be tested, 0.1 ml of test line and of culture medium with or without 0.5 ml of enzymatic homogenate (S9) of rat liver microsome were mixed with 2 ml of molten agarose (containing 0.5 mM of histidine and 0.5 mM of biotin). This mixture was placed on the surface of a plate of minimal agarose glucose medium (30 ml for each Petri dish) so as to obtain final concentrations of compound to be tested of 3,000; 300; 30 and 3 μγ/plate. The plates were then incubated at 37° C. for 48 hours. […] The revertant colonies of the test lines were counted using a colony counter (Sigma). […] A compound inducing a number of colonies <50% of cells obtained for the solvent alone was deemed to be toxic for the bacteria tested. All the experiments were carried out in triplicate.

[7] = system: Salmonella tiphimurium TA100; assay: AMES test, TA100; settings: value per plate
Excerpt: as §6, §7, §8

[8] = 3.0 nanomoles H2O2 added just before the ascorbate

T2 sequence (P05067 672-713): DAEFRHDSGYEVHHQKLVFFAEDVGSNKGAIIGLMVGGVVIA
T1 sequence (P05067 672-713 limits assumed, one chain of several): as the sequence (P05067 672-713) above

Structure (SMILES) | amount of H2O2, without Aβ1-42 ([1]; ligand 1 eq/Cu(II) (0.4 μM)) | amount of H2O2, 0.2 μM Aβ1-42 Cu/Aβ = 2 ([2]; ligand 1 eq/Cu(II) (0.4 μM)) | amount of H2O2, 0.5 μM Aβ1-42 Cu/Aβ = 0.75 ([2]; ligand 1 eq/Cu(II) (0.4 μM)) | logD at 3 min [5] | CuCl2 % soluble Aβ (Aβ1-42) | FeCl3 % soluble Aβ (Aβ1-42) | ZnCl2 % soluble Aβ (Aβ1-42) | without metal % soluble Aβ (Aβ1-42) | other results
Cc1ccc2cccc(NCCNc3cccc4ccc(C)nc34)c2n1 [Compound 14, N,N′-bis(2-methyl-8-quinolinyl)-1,2-ethanediamine] | 0.74 nmol | 1.99 nmol | 0.78 nmol | 1.8 ± 0.1 | 45 ± 3% | 51% | 57% | 79 ± 3% | theoretical value of H2O2 if there is no degradation (in parentheses) ([3]; Aβ1-42 0.2 μM, Cu(II), 3.0 nanomoles H2O2 added just before the ascorbate): 5.0 nmol; H2O2 assayed [4, 8]: 4.9 nmol; H2O2 assayed ([4]; no H2O2 added): 1.99 ± 0.11 nmol
Oc1c(I)cc(Cl)c2cccnc12 [Clioquinol, reference compound] | 2.07 nmol | 0.89 ± 0.08 nmol | 0.64 nmol | 3.8 ± 0.1 | 55 ± 3% | 51% | 37% | 63% | TA98 Cytotoxicity ([6]; Addition of S9: no): 300 µg; TA98 Cytotoxicity ([6]; Addition of S9: yes): 300 µg; amount of H2O2, without Aβ1-42 ([1]; ligand 2 eq/Cu(II)): 0.54 nmol; amount of H2O2, 0.2 μM Aβ1-42 Cu/Aβ = 2 ([2]; ligand 2 eq/Cu(II)): 0.78 ± 0.06 nmol; amount of H2O2, 0.5 μM Aβ1-42 Cu/Aβ = 0.75 ([2]; ligand 2 eq/Cu(II)): 0.57 nmol; TA100 Cytotoxicity ([7]; Addition of S9: no): 30 µg; TA100 Cytotoxicity ([7]; Addition of S9: yes): 30 µg
O=C(Nc1ccc2cccc(O)c2n1)c1ccc2cccc(O)c2n1 [Compound 18, 8-hydroxy-N-(8-hydroxy-2-quinolinyl)-2-quinolinecarboxamide] | 0.47 nmol | 0.47 nmol | 0.45 nmol | 3 ± 0.1 | 46 ± 3% | 49% | 62 ± 5% | 66% | H2O2 assayed [3, 8]: 3.5 (3.5) nanomoles; H2O2 assayed ([3]; no H2O2 added): 0.47 nmol; theoretical value of H2O2 if there is no degradation (in parentheses) ([3]; no Aβ1-42, Cu(II), 3.0 nanomoles H2O2 added just before the ascorbate): 3.5 (3.5) nanomoles
Oc1ccc(Cl)c2ccc(Cc3ccc4c(Cl)ccc(O)c4n3)nc12 [Compound 2, 2,2′-methanediyl-bis(5-chloro-8-hydroxyquinoline)] | 0.56 nmol | 0.80 ± 0.23 nmol | 0.61 nmol | 3.5 ± 0.1 | 45 ± 5% | 58% | 57% | 66% | 

From US20120277265A1, “NOVEL POLYQUINOLINE DERIVATIVES AND THE THERAPEUTIC USE THEREOF” (CENTRE NATIONAL DE LA RECHERCHE SCIENTIFIQUE (C.N.R.S.), priority 2005, published 2012)
